From US8003673B2, “Daptomycin for the treatment of biofilm and catheter salvage” (Cubist Pharmaceuticals, Inc., priority 2006, dated 2011)
In brackets after ≈: the same amount, converted by molar mass. Like-named read-outs stand apart in the source and are kept apart here.

Tests used:
Staphylococcus aureus = test: Susceptibility (MIC) of S. aureus #42 control strain; assay type: cell-based; details: strain 42 Staphylococcus aureus; read-out: MIC
[1] = system: Staphylococcus epidermidis; test: Susceptibility (MIC) of S. epidermidis isolates used in CVC studies
[2] = system: S. epidermidis CVC infection; test: Rat model of CVC infection, antibiotic lock therapy; assay type: in vivo, Sprague Dawley rats
Procedure: Male Sprague Dawley rats (˜250 g) with catheterized jugular veins were used in these studies. Rat catheters (polyurethane tubing, 0.025 inch internal diameter) were inoculated with a culture of S. epidermidis at 5×10^8 CFU/ml. The total volume of the catheters is approximately 40 μl. The catheters were flushed with heparinized saline 1 hour after inoculation, and were maintained by daily flushes. The catheter infection was monitored by daily blood draws that were plated and quantified.
Daptomycin, vancomycin and nafcillin were used as therapy. Two different dosing regimes were used. The first mimicked clinical infusion with daptomycin administered at 5 mg/ml in the line for 30 minutes once daily compared to vancomycin at 5 mg/ml for 60 minutes twice daily, for a total of 4 days. The second regime simulated antibiotic lock therapy with an 18 hour exposure of daptomycin or vancomycin at 5 mg/ml, followed by a heparinized saline flush, daily for 3 days. In both regimes, the animals received parenteral doses of the appropriate antibiotic by subcutaneous route to simulate total body exposure (as it was not possible to administer the correct dosages through the line at 5 mg/ml). Most trials involved a therapy period, followed by a period of no antibiotic therapy to monitor for resurgence of infection due to surviving bacterial colonies.
Infection levels were monitored by daily blood draws through the infected catheter. For the terminal harvest, a final blood draw was taken and then the flushed catheter was harvested, and analyzed for surviving bacteria by sonication, vortexing, and plating. The vena cava, heart, lung, kidney, and spleen were assayed as potential metastatic infection sites by aseptic harvest, homogenization, and plating.

[3] = system: Methicillin-resistant coagulate negative staphylococci biofilms; assay type: cell-based, coagulase negative staphylococci (S. epidermidis isolates)
Procedure: Methicillin-resistant coagulate negative staphylococci biofilms were grown to approximately 10^5 cells per cm^2 for 24 h in glass test tubes, planktonic bacteria rinsed away and Mueller Hinton broth (calcium supplemented to […] in daptomycin tests) containing antimicrobials added to the tubes. The concentrations of antimicrobials studied were two-fold dilutions from 64 to 1 μg/mL of daptomycin, rifampin, or daptomycin plus 0.5 μg/mL rifampin. The tests were incubated overnight in room air at 37° C. The cell density in rinsed biofilms was determined prior to addition of antimicrobials and after incubation. The change in bacterial density after incubation with antimicrobials was determined, and the results were expressed as the lowest antimicrobial concentration that killed 99.90% of biofilm bacteria. Bacteria recovered from tests containing rifampin were tested for rifampin susceptibility.

[4] = strain 119 Staphylococcus epidermidis
[5] = strain 1315 Staphylococcus epidermidis
[6] = strain 1316 Staphylococcus epidermidis
[7] = strain 1317 Staphylococcus epidermidis
[8] = strain 1318 Staphylococcus epidermidis
[9] = strain 1319 Staphylococcus epidermidis
[10] = strain 1320 Staphylococcus epidermidis
[11] = Antimicrobial Concentration ≧64

Compound	MIC (Staphylococcus aureus)	MIC [1, 4]	MIC [1, 5]	MIC [1, 6]	MIC [1, 7]	MIC [1, 8]	MIC [1, 9]	MIC [1, 10]	other results
CC(=O)NC[C@H]1CN(c2ccc(N3CCOCC3)c(F)c2)C(=O)O1 [Linezolid]	2 µg/mL (≈ 5.93 µM)	1 µg/mL (≈ 2.96 µM)	0.5 µg/mL (≈ 1.48 µM)	1 µg/mL (≈ 2.96 µM)	0.5 µg/mL (≈ 1.48 µM)	1 µg/mL (≈ 2.96 µM)	0.5 µg/mL (≈ 1.48 µM)	1 µg/mL (≈ 2.96 µM)	
CCOc1ccc2ccccc2c1C(=O)N[C@@H]1C(=O)N2[C@@H]1SC(C)(C)[C@@H]2C(=O)O [Nafcillin]	0.125 µg/mL (≈ 0.302 µM)	0.031 µg/mL (≈ 0.0748 µM)	2 µg/mL (≈ 4.83 µM)	16 µg/mL (≈ 38.6 µM)	0.125 µg/mL (≈ 0.302 µM)	> 16 µg/mL	16 µg/mL (≈ 38.6 µM)	> 16 µg/mL	Animals with positive catheter at harvest after lock therapy ([2]; following 7 days of antibiotic-free heparin flushes): all; Metastatic infection after lock therapy ([2]; lock therapy combined with SC dosing): A significant proportion of nafcillin-treated animals showed positive metastatic infections at multiple sites
CO[C@H]1/C=C/O[C@@]2(C)Oc3c(C)c(O)c4c(O)c(c(/C=N/N5CCN(C)CC5)c(O)c4c3C2=O)NC(=O)/C(C)=C\C=C\[C@H](C)[C@H](O)[C@@H](C)[C@@H](O)[C@@H](C)[C@H](OC(C)=O)[C@@H]1C [Rifampicin]	< 0.004 µg/mL	0.008 µg/mL (≈ 0.00972 µM)	< 0.004 µg/mL	0.008 µg/mL (≈ 0.00972 µM)	> 4 µg/mL		< 0.004 µg/mL	0.008 µg/mL (≈ 0.00972 µM)	# of isolates (lowest concentration that killed 99.90% of biofilm bacteria) ([3]; Antimicrobial Concentration 1): 1 (1); (N) number of rifampin susceptible isolates that became rifampin resistant during test ([3]; Antimicrobial Concentration 1): 1 (1); Mean log10 reduction ([3]; Antimicrobial Concentration 1): 3.5 log10; # of isolates (lowest concentration that killed 99.90% of biofilm bacteria) ([3]; Antimicrobial Concentration 2): 0; # of isolates (lowest concentration that killed 99.90% of biofilm bacteria) ([3]; Antimicrobial Concentration 4): 1; Mean log10 reduction ([3]; Antimicrobial Concentration 4): 3.2 log10; # of isolates (lowest concentration that killed 99.90% of biofilm bacteria) ([3]; Antimicrobial Concentration 8): 2; Mean log10 reduction ([3]; Antimicrobial Concentration 8): 3.4 log10; # of isolates (lowest concentration that killed 99.90% of biofilm bacteria) ([3]; Antimicrobial Concentration 16): 2; (N) number of rifampin susceptible isolates that became rifampin resistant during test ([3]; Antimicrobial Concentration 16): 1; Mean log10 reduction ([3]; Antimicrobial Concentration 16): 3.0 log10; # of isolates (lowest concentration that killed 99.90% of biofilm bacteria) ([3]; Antimicrobial Concentration 32): 0; # of isolates (lowest concentration that killed 99.90% of biofilm bacteria) [3, 11]: 21; (N) number of rifampin susceptible isolates that became rifampin resistant during test [3, 11]: 7; Mean log10 reduction [3, 11]: 1.4 log10
